This note sets out measurements from PubChem BioAssay AID2418 (NMMLSC, 2010).

Active and inactive are the calls of the source.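 How the source made its calls: active means compounds reducing bradykinin-triggered filopodia by more than 10% inhibition at 10 microM; inactive means the rest.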

The test system of the experiment is Swiss 3T3 bradykinin-induced filopodia, phalloidin imaging. The experiment is described as follows: Cdc42-linked filopodia blockade in 3T3 fibroblasts – imaging, 3T3 cells, bradykinin stimulation, orthogonal assay for Ras-related GTPase inhibitor project (AID 2418). Particulars: at 10 µM; hits give high values.
What is called inhibition is the drop in the measured response relative to a control, in per cent. Regarding `Cc1cccc(C2CC(c3ccccc3)=NN2c2ccc(S(N)(=O)=O)cc2)c1` (stereo not drawn), the inhibition is 19%. Then `COc1ccc(C2CC(c3ccccc3)=NN2c2ccc(S(N)(=O)=O)cc2)cc1` (stereo not drawn), with 56%; and `Cc1ccc(C2CC(c3ccccc3)=NN2c2ccc(S(N)(=O)=O)cc2)cc1` (stereo not drawn), with -11% (inactive).
